The results in this text go back to US20070037253A1, “Methods and compositions for treatment of arthritis and cancer” (priority 2003, published 2007).

Entries after “also recorded” stand apart in the source; their conditions may differ. Where a SMILES comes first, the peptide text is derived from it.

One assay deals with T1, MMP-2 (Homo sapiens, UniProt P08253).
T1 construct: from tissue; host or cells: human synovial fluid
T1 sequence (P08253 110-660): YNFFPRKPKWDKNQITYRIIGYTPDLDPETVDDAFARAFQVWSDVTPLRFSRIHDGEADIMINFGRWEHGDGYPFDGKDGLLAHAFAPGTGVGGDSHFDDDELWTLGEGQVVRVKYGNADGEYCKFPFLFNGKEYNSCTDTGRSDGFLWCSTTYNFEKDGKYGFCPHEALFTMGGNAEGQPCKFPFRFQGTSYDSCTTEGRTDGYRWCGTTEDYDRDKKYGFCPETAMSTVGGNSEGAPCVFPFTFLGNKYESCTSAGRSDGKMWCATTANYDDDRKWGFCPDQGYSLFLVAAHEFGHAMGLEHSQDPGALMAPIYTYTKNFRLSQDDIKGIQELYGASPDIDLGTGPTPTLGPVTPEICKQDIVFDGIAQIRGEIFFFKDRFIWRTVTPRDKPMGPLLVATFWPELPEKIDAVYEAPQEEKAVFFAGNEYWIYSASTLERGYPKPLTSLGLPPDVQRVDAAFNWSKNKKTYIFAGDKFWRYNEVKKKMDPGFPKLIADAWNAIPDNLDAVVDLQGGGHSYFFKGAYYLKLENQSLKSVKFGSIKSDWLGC
As to the kind of experiment: Gelatin zymography of human synovial fluid pre-incubated with inhibitors. It counts as biochemical. The note with it: 5 or 10 μM, pre-incubated 37° C. 1 h. How it is done:
(§1) (A) Samples containing human synovial fluid (5 μL) and 5 or 10 μM of peptides were pre-incubated at 37° C. for 1 h in Tris-HCl buffer prior to electrophoresis on 10% SDS-PAGE gel containing gelatin (0.1%). […] (B) The mean density (OD/mm2)±SD (n=3), representing MMP-2 activity, obtained by scanning the zymograms using the GS-710 calibrated imaging densitometer (Bio Rad, USA).
(§2) Gelatin zymography: human synovial fluid, purified human recombinant MMP-2 and -9 or APMA-activated concentrated culture supernatant samples (10 μL) was mixed (1:1) with Laemmli sample buffer, loaded on 4% acrylamide stacking gel and electrophoresed (120 V) at 4° C. on a 10% acrylamide-resolving minigel containing 0.1% gelatin. After electrophoresis for 1 h, the gels were soaked in 2.5% Triton X-100 on a shaker for 1 h, changing the solution after 30 min, to eliminate SDS. After overnight incubation in zymogen activation buffer [50 mM Tris-HCl, pH 7.5, containing 10 mM CaCl2 and 5 mM ZnCl2] at 37° C., the gels were rinsed in distilled water, and stained for 3 hr with […], after which clear bands of digested gelatin were clearly visible. The gels were briefly rinsed in distilled water and scanned by the Bio-Rad GS-710 Calibrated Imaging Densitometer.

The target of the next assay is T2, MMP-9 (Homo sapiens, UniProt P14780).
T2 construct: Samples containing human synovial fluid (5 μL) and 5 or 10 μM of peptides were pre-incubated; from tissue; host or cells: human synovial fluid
T2 sequence (P14780 94-707): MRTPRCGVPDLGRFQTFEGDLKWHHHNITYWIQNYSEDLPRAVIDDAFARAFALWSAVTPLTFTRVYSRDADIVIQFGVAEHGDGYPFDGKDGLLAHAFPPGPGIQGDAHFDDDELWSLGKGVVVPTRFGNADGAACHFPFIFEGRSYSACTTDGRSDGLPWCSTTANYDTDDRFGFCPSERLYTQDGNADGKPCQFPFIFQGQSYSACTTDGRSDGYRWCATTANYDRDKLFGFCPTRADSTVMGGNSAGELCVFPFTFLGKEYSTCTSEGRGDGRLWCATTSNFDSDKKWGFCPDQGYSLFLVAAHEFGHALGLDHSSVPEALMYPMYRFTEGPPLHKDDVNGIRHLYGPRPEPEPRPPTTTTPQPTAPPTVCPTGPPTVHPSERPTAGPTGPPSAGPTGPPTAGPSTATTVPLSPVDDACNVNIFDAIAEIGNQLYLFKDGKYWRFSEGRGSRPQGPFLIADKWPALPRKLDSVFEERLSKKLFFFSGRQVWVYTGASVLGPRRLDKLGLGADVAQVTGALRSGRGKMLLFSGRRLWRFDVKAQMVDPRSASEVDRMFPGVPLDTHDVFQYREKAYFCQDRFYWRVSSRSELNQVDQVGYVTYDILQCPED
The description is as above. To be noted: co-incubated 1 h. Type of assay: biochemical. Here is the method: as §1, §2

In assay [1] the target is T3, MMP-1, secreted from IL-1 β-stimulated rabbit synovial fibroblasts (Oryctolagus cuniculus, UniProt P13943).
T3 construct: endogenous in cells; host or cells: HIG-82 rabbit fibroblast-like synoviocytes (ATCC CRL-1832)
T3 sequence (P13943 99-468): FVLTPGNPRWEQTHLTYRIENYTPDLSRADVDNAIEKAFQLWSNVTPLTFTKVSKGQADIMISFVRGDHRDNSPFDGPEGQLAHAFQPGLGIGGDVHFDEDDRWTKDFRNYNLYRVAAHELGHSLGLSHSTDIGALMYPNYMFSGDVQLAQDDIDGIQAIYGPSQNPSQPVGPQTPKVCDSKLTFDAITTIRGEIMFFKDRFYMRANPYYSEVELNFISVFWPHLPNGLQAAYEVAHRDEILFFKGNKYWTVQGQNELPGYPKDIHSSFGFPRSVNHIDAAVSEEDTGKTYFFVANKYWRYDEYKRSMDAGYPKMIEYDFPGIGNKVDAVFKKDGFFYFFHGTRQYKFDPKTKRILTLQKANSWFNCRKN
As to the kind of experiment: Secreted MMP-1 activity of IL-1β-stimulated rabbit synovial fibroblasts. Type of assay: cell-based. How it is done:
FLSC culture and inhibition of extracellular MMP activity: All experiments were performed on HIG-82 rabbit fibroblast-like synoviocytes (FLSCs) obtained from American Type Culture Collection (Manassas, Va.; catalogue No. CRL-1832). FLSCs were grown in Ham's F-12 medium containing 10% fetal bovine serum (FBS) and 1% penicillin/streptomycin, as recommended by the supplier. For experimental purposes, FLSCs were seeded into 12-well plates, grown to near confluence, and then serum starved (Ham's F-12 without FBS or penicillin/streptomycin) for 16 h. After serum starvation of FLSCs, supernatants were removed and replaced with fresh Ham's F-12 medium for 60 min at 37° C./5% CO2 before incubation for 2 h with various concentrations (1-10 μM) of test inhibitor peptides: P-NT.II, PIP [59-67] monomer and dimer. FLSCs were then stimulated for 24 h with IL-1β (10 ng/mL), and the supernatants concentrated by centrifugation in Centricon centrifugal filter devices (M.W. cutoff 30,000) for 35 min at 5000 rpm at 4° C. After activation with APMA (1 mM final concentration), the samples were measured for MMP-1 activity using BIOMOL AK-404 QuantiZyme Assay system, and for MMP-2 and -9 activities by gelatin zymography.

As to `CC[C@H](C)[C@H](NC(=O)[C@H](CC(=O)O)NC(=O)[C@@H](N)C(C)C)C(=O)N[C@@H](Cc1c[nH]cn1)C(=O)N[C@H](C(=O)N[C@@H](Cc1c[nH]c2ccccc12)C(=O)N[C@@H](CC(=O)O)C(=O)NCC(=O)N[C@H](C(=O)N[C@H](C(=O)N[C@@H](CC(=O)O)C(=O)N[C@H](C(=O)N[C@@H](Cc1c[nH]cn1)C(=O)N[C@H](C(=O)N[C@@H](Cc1c[nH]c2ccccc12)C(=O)N[C@@H](CC(=O)O)C(=O)NCC(=O)N[C@H](C(=O)O)C(C)C)C(C)C)[C@@H](C)CC)C(C)C)C(C)C)C(C)C` [PIP [59-67] dimer] (H-VDIHVWDGVVDIHVWDGV-OH; N-terminus and C-terminus assumed), the “MMP-2 gelatinase activity (zymogram densitometry) vs control” value at MMP-2 is “did not show any significant difference from the control; also recorded: insignificant”. In addition, the “MMP-9 gelatinase activity vs control” value at MMP-9 is on record as “insignificant”. In assay [1], the “enzyme activity of secreted MMP-1” value was “markedly inhibited”.
